Experimental data from PubChem BioAssay (NCI).
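Test compounds were applied to cells in 96-well plates for 48 hours at 5 doses. GI50: concentration for 50% inhibition of growth. The concentration for full growth arrest is given as TGI.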 Where a SMILES comes first, the peptide text is derived from it. The star is where a group is joined. Palmitoyl = CCCCCCCCCCCCCCCC(=O)*

How the values were obtained:
Assay in all cases: inhibition of tumour cell growth, NCI panel, 48 h
[1] = test system: COLO 205 colon
[2] = test system: SK-MEL-5 melanoma
[3] = test system: ACHN renal
[4] = test system: SF-295 CNS
[5] = test system: EKVX NSCLC
[6] = test system: CCRF-CEM leukemia
[7] = test system: KM12 colon
[8] = test system: BT-549 breast
[9] = test system: MCF7 breast
[10] = test system: SR leukemia

SMILES | TGI [1] | TGI [2] | TGI [3] | TGI [4] | TGI [5] | TGI [6] | TGI [7] | TGI [8] | TGI [9] | TGI [10] | GI50 [8] | GI50 [1] | GI50 [2] | GI50 [4] | GI50 [5] | GI50 [10] | GI50 [9] | GI50 [6] | GI50 [7]
CCOC(=O)/C=C1/C(CCCOCc2ccccc2)C2CCCC23CC2(CCN13)OCCO2 (stereo not given) | 34.2 µM | 34.8 µM | 83.9 µM | > 100 µM | > 100 µM | 64.4 µM | 58 µM |  |  |  |  |  |  |  |  |  |  |  | 
CC(C)(C)c1ccc2c(c1)C#Cc1cc3c(cc1OCCCO2)C#Cc1cc(C(C)(C)C)ccc1OCCCO3 | > 100 µM | > 100 µM | > 100 µM | > 100 µM | > 100 µM | > 100 µM | > 100 µM | 3.39 µM | > 100 µM |  |  |  |  |  |  |  |  |  | 
CCc1n[nH]c(=O)n1-c1ccc2ccccc2c1 | > 100 µM | > 100 µM | > 100 µM | > 100 µM | > 100 µM | > 100 µM | > 100 µM |  | > 100 µM | > 100 µM |  |  |  |  |  |  |  |  | 
O=C(CCSC1=NCCCN1)c1ccc(F)cc1 | 11.8 µM | 36.4 µM | 31.1 µM | 97.3 µM | 27.5 µM | 11.6 µM | 46.6 µM | 35.7 µM | 20.4 µM | 13.3 µM |  |  |  |  |  |  |  |  | 
Cc1cc(N(C)C)c2ccccc2[n+]1CCCCCCCCCC[n+]1c(C)cc(N(C)C)c2ccccc21 | 6.07 µM | 1.07 µM | 6.34 µM | 8.95 µM | 35.3 µM | 13.5 µM | 1.61 µM | 15.4 µM | 26.3 µM |  |  |  |  |  |  |  |  |  | 
COc1ccc(CC(N)=O)cc1OC | > 1250 µM | > 1250 µM |  | > 1250 µM | > 1250 µM | > 1250 µM | > 1250 µM |  | > 1250 µM |  |  |  |  |  |  |  |  |  | 
CC(C)C1=CC23CCC4C(C)(C(=O)O)CCCC4(C)C2CC1C1C(=O)N(CCCCCCN2C(=O)C4C5CC6C7(C)CCCC(C)(C(=O)O)C7CCC6(C=C5C(C)C)C4C2=O)C(=O)C13 (stereo not given) |  | 26.9 µM | 22.8 µM |  | 21.6 µM | 37.7 µM | 23.9 µM |  | 21.7 µM | 34.1 µM |  |  |  |  |  |  |  |  | 
CN1Cc2c(nc(-c3ccccc3)c[n+]2[O-])N(C)C1 | > 100 µM | > 100 µM | > 100 µM | > 100 µM | > 100 µM | > 100 µM | > 100 µM |  |  |  |  |  |  |  |  |  |  |  | 
O=C1/C(=C/c2ccc(Cl)cc2)CCCc2ccccc21 | 34.9 µM |  | 31.1 µM | 31.5 µM | 35.3 µM | 32.5 µM | 28.5 µM | 47.3 µM | 65.8 µM | 37 µM |  |  |  |  |  |  |  |  | 
CC(C)(C)N=C(N)NC#N | > 100 µM | > 100 µM | > 100 µM |  | > 100 µM | > 100 µM |  | > 100 µM | > 100 µM | > 100 µM |  |  |  |  |  |  |  |  | 
CCOC(=O)CNC(=O)NC12CC3CC(CC(C3)C1)C2 | 363 µM | 330 µM |  | > 550 µM | > 347 µM | > 550 µM | > 449 µM |  | 505 µM |  |  |  |  |  |  |  |  |  | 
C=C(C)[C@H]1C2=CC(C(=O)OC)=C(C[C@H](C(=C)C)[C@@H](O)[C@@H](O)C3=C[C@H]1OC3=O)O2 | > 100 µM | > 100 µM | > 100 µM | > 100 µM | > 100 µM | > 100 µM | > 100 µM | > 100 µM | > 100 µM |  |  |  |  |  |  |  |  |  | 
CC(C(=O)COCc1ccccc1)P1(=O)OC(C)(C)CN1C(C)(C)C (stereo not given) | > 100 µM | > 100 µM | > 100 µM | > 100 µM | > 100 µM | > 100 µM | > 100 µM |  | > 100 µM |  |  |  |  |  |  |  |  |  | 
O=C(c1ccccc1)c1ccc2c(c1)NC(=O)c1ccccc1SSc1ccccc1C(=O)N2 | > 100 µM | > 100 µM | > 100 µM | > 100 µM | > 100 µM | > 100 µM | > 100 µM | > 100 µM |  | > 100 µM |  |  |  |  |  |  |  |  | 
CC1=C(C#N)c2nc3ccccc3n2C(=O)C1(C)CCO (stereo not given) | > 100 µM | > 100 µM | > 100 µM | > 100 µM | > 100 µM | > 100 µM |  | > 100 µM | > 100 µM | > 100 µM |  |  |  |  |  |  |  |  | 
CCCCCCCCCCCCCCCC(=O)N1CCCC1C(=O)NCC(=O)NC(Cc1ccccc1)C(=O)N1CCCC1C(=O)NC(CO)C(=O)NC(Cc1ccc(O)cc1)C(=O)NC(CCCCN)C(=O)NC(CC(C)C)C(=O)NC(CCCN=C(N)N)C(=O)N1CCCC1C(=O)NCC(N)=O (stereo not given) (Palmitoyl-PGFPSYKLRPG-NH2; configuration not given here) | 33.3 µM | > 100 µM |  | 75.9 µM | 44.5 µM | 33.8 µM | 12.7 µM | 43.2 µM | 35.3 µM | 44.9 µM | 20.8 µM | 10.3 µM | 28.7 µM | 26.5 µM | 15.7 µM | 16.5 µM | 15 µM | 17 µM | 2.28 µM
CCCCOCCOC1=C(Cl)C(=O)c2c(O)ccc(O)c2C1=O | 0.397 µM | 1.98 µM | 1.1 µM | 2.91 µM | 7.59 µM | 0.242 µM | 3.37 µM | 0.341 µM | 2.04 µM |  |  |  |  |  |  |  |  |  | 
O=C1CSC2(CC(/C=C/c3cccs3)=NN2c2cccc(S(=O)(=O)O)c2)N1c1nc2ccccc2s1 (stereo not given) | > 100 µM | > 100 µM | > 100 µM |  | > 100 µM | > 100 µM | > 100 µM | > 100 µM | > 100 µM | > 100 µM |  |  |  |  |  |  |  |  | 
Nc1ncnc2c1ccn2C/C=C/CO | > 100 µM | > 100 µM | > 100 µM | > 100 µM | > 100 µM | > 100 µM | > 100 µM | > 100 µM | > 100 µM |  |  |  |  |  |  |  |  |  | 
[N-]=[N+]=CC(=O)OC(CCl)CCl | > 100 µM | > 100 µM | > 100 µM | > 100 µM | > 100 µM |  | > 100 µM | > 100 µM | > 100 µM | > 100 µM |  |  |  |  |  |  |  |  | 
CC1(C)C=CC(=O)C(O)C(C)(C)C1=O (stereo not given) | > 100 µM | > 100 µM | > 100 µM | > 100 µM | > 100 µM | 3.63 µM | > 100 µM | > 100 µM |  |  |  |  |  |  |  |  |  |  | 
Cc1nc2ccccc2c(-n2cccn2)c1CCn1cccn1 | > 100 µM | > 100 µM | > 100 µM | > 100 µM | > 100 µM | > 100 µM | > 100 µM |  | > 100 µM | > 100 µM |  |  |  |  |  |  |  |  | 
